{"source": "patent US10016358B2", "about": "(ROLF KULLGREN AB, priority 2008, dated 2018)", "type_in_all_cases": "cell-based", "key": {"C. albicans": {"system": "C. albicans", "experiment": "Fungicidal effect of lactate compared with HCl at identical pH (FIG. 1)", "details": "5% solution at pH 3.8; incubation at 37 C for two hours; control 1,000,000CFU"}, "C.albicans ATCC 64549": {"system": "C.albicans ATCC 64549", "experiment": "Minimum microbicidal concentration of lactate (microbicidal assay)", "details": "for killed: after 2.5 h of incubation; for Remaining viability: 2.5 h at 37° C.", "description": "(§1) E.coli O6K5 (a urinary tract infection pathogen), a group B Streptococcus strain (GBS) CCUG 49086, and C.albicans ATCC 64549, The microorganisms were incubated over night in BHI medium. Thereafter the suspensions were transferred to new tubes and incubated for 2.5 h at 37° C. The cells were washed and suspended in diluted BHI ( 1/100, BHIdll). The suspensions were measured spectrophotometrically at 590 nm and the concentrations of the microrganisms adjusted according to standard curves. The bacterial suspensions were adjusted to 2×10^8CFU per ml and C.albicans\n(§2) One lactate suppository was dissolved in 0.5 ml of distilled water. A lactate solution of 11.5% was obtained. This solution was used in the microbicidal assay.\n(§3) The lactate solution was serially diluted in BHIdll by twofold steps in tubes (100 μl piper tube). The bacterial and yeast cell solutions were added in 10 μl volumes to give a final concentration of approximately 2×10^7 and 1×10^5 cells per ml respectively. The tubes were incubated at 37° C. on a shaker for 2.5 h. Five ul were taken from each tube and added as a drop (in triplicate) onto a blood agar plate and incubated over night at 37° C. The killing was expressed as remaining colony forming units (CFU) in relation to the inoculum. The lower limit for detection of microorganisms was 200 CFU/ml. The viability of any remaining microorganism in the tubes was checked by diluting the remaining solutions to 1/5 with growth medium, resulting in a 2.3% lactate solution or less, and incubation of the tubes over night at 37 C. The next day, once again 5 μl of the solutions were applied as drops onto blood agar plates and incubated at 37° C. over night."}, "[1]": {"system": "group B Streptococcus strain (GBS) CCUG 49086", "experiment": "Minimum microbicidal concentration of lactate (microbicidal assay)", "details": "for Remaining viability: 2.5 h at 37° C.; for killed: after 2.5 h of incubation", "description": "as §1, §2, §3"}, "E.coli O6K5": {"system": "E.coli O6K5", "experiment": "Minimum microbicidal concentration of lactate (microbicidal assay)", "details": "for Remaining viability: 2.5 h at 37° C.", "description": "as §1, §2, §3"}}, "note": "Counter-ions that a name gives are not always drawn.", "data": [{"smiles": "Cl", "note": "[HCl, reference compound]", "values": [{"measurement": "viable colony forming units of C. albicans", "setting": "C. albicans", "value": "100,000 CFU"}]}, {"smiles": "CC(O)C(=O)O", "note": "(stereo not shown) [lactate]", "values": [{"measurement": "viable colony forming units of C. albicans", "setting": "C. albicans", "value": "< 100", "unit": "CFU"}, {"measurement": "killed", "setting": "C.albicans ATCC 64549; 5.8% of lactate", "value": 99.4, "unit": "%"}, {"measurement": "killed", "setting": "C.albicans ATCC 64549; 11.5% of lactate", "value": 100, "unit": "%"}, {"measurement": "lactate concentration that effectively killed the pathogen", "setting": "C.albicans ATCC 64549; 2.5 h incubation", "value": "≥ 5.8", "unit": "%"}, {"measurement": "Remaining viability", "setting": "C.albicans ATCC 64549; lactate concentration 0.35%", "value": "+ (no distinguishable colonies (>50 CFU per area = >10^4 CFU per ml))"}, {"measurement": "Remaining viability", "setting": "C.albicans ATCC 64549; lactate concentration 0.7%", "value": "+ (no distinguishable colonies (>50 CFU per area = >10^4 CFU per ml))"}, {"measurement": "Remaining viability", "setting": "C.albicans ATCC 64549; lactate concentration 1.4%", "value": "+ (no distinguishable colonies (>50 CFU per area = >10^4 CFU per ml))"}, {"measurement": "Remaining viability", "setting": "C.albicans ATCC 64549; lactate concentration 2.9%", "value": "+ (no distinguishable colonies (>50 CFU per area = >10^4 CFU per ml))"}, {"measurement": "Remaining viability", "setting": "C.albicans ATCC 64549; lactate concentration 5.8%", "value": "0.6 ± 0.4^¤ percentage of the inoculum"}, {"measurement": "Remaining viability", "setting": "C.albicans ATCC 64549; lactate concentration 11.5%", "value": 0}, {"measurement": "lactate concentration that effectively killed the pathogen", "setting": "[1]; 2.5 h incubation", "value": "≥ 5.8", "unit": "%"}, {"measurement": "Remaining viability", "setting": "[1]; lactate concentration 0.35%", "value": "+ (no distinguishable colonies (>50 CFU per area = >10^4 CFU per ml))"}, {"measurement": "Remaining viability", "setting": "[1]; lactate concentration 0.7%", "value": "+ (no distinguishable colonies (>50 CFU per area = >10^4 CFU per ml))"}, {"measurement": "Remaining viability", "setting": "[1]; lactate concentration 1.4%", "value": "+ (no distinguishable colonies (>50 CFU per area = >10^4 CFU per ml))"}, {"measurement": "Remaining viability", "setting": "[1]; lactate concentration 2.9%", "value": "+ (no distinguishable colonies (>50 CFU per area = >10^4 CFU per ml))"}, {"measurement": "Remaining viability", "setting": "[1]; lactate concentration 5.8%", "value": 0}, {"measurement": "killed", "setting": "[1]; lactate concentration 5.8%", "value": 100, "unit": "%"}, {"measurement": "Remaining viability", "setting": "[1]; lactate concentration 11.5%", "value": 0}, {"measurement": "killed", "setting": "[1]; lactate concentration 11.5%", "value": 100, "unit": "%"}, {"measurement": "lactate concentration that effectively killed the pathogen", "setting": "E.coli O6K5; 2.5 h incubation", "value": "≥ 5.8", "unit": "%"}, {"measurement": "Remaining viability", "setting": "E.coli O6K5; lactate concentration 0.35%", "value": 0}, {"measurement": "Remaining viability", "setting": "E.coli O6K5; lactate concentration 0.7%", "value": 0}, {"measurement": "Remaining viability", "setting": "E.coli O6K5; lactate concentration 1.4%", "value": 0}, {"measurement": "Remaining viability", "setting": "E.coli O6K5; lactate concentration 2.9%", "value": 0}, {"measurement": "Remaining viability", "setting": "E.coli O6K5; lactate concentration 5.8%", "value": 0}, {"measurement": "Remaining viability", "setting": "E.coli O6K5; lactate concentration 11.5%", "value": 0}, {"measurement": "killed", "setting": "E.coli O6K5; lowest concentration of lactate tested (0.35%), after 2.5 h of incubation", "value": 100, "unit": "%"}]}]}
